Assays:
Melanocortin receptor 5 = Melanocortin receptor 5 (Homo sapiens, UniProt P33032); assay: Binding affinity towards Melanocortin 5 receptor, expressed as negative log of the Ki value
Melanocortin receptor 4 = Melanocortin receptor 4 (Homo sapiens, UniProt P32245); assay: Binding affinity towards Melanocortin 4 receptor, expressed as negative log of the Ki value
[1] = target: Melanocyte-stimulating hormone receptor (Homo sapiens, UniProt Q01726); assay: Binding affinity towards Melanocortin 1 receptor, expressed as negative log of the Ki value
Melanocyte-stimulating hormone receptor, sequence (Q01726 whole entry): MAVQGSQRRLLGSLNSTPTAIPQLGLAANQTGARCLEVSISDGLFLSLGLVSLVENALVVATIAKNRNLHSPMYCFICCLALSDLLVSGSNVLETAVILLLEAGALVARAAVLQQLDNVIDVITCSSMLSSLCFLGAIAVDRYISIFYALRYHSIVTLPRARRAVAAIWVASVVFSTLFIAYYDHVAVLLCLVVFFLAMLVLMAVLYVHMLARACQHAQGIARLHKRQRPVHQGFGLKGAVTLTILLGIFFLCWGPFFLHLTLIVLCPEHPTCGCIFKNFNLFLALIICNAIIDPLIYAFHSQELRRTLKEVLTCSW

Melanocortin receptor 3 = Melanocortin receptor 3 (Homo sapiens, UniProt P41968); assay: Binding affinity towards Melanocortin 3 receptor, expressed as negative log of the Ki value
Melanocortin receptor 3, sequence (P41968 whole entry): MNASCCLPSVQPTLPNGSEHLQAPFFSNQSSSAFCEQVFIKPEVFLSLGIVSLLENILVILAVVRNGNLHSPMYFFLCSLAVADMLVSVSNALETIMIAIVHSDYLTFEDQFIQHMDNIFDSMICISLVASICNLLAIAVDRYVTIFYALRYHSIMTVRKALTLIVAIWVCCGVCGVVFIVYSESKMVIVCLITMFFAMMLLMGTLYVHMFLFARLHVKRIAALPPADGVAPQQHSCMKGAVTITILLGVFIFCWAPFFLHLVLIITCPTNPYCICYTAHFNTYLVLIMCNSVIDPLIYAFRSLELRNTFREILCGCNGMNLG

Melanocortin receptor 4, sequence (P32245 whole entry): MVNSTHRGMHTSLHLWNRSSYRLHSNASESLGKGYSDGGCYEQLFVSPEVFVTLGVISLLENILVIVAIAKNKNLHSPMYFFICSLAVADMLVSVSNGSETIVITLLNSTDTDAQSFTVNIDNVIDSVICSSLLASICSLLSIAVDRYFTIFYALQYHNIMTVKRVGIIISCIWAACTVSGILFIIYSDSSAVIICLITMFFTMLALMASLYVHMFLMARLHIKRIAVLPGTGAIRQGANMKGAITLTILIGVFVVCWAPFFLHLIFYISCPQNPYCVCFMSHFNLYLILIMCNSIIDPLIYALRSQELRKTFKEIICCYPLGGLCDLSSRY
Melanocortin receptor 5, sequence (P33032 whole entry): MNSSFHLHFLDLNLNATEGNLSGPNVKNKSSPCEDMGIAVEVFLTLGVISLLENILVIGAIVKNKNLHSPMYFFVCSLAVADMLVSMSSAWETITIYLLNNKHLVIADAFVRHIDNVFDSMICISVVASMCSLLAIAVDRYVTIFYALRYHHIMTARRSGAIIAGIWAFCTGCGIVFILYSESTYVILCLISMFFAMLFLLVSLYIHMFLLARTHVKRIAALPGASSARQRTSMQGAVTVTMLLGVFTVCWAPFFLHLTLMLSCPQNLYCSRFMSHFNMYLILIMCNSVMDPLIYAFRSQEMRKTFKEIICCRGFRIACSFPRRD

| SMILES | Ki (Melanocortin receptor 5) [µM] | Ki (Melanocortin receptor 4) [µM] | Ki [1] [µM] | Ki (Melanocortin receptor 3) [µM] |
| --- | --- | --- | --- | --- |
| N=C(N)NCCCNC(=O)[C@H](CCCN=C(N)N)NCc1ccc2ccccc2c1 | 1000 | 31.6 | 3.98 | 5.01 |
| NC(N)=NCCC[C@H](N)C(=O)N(Cc1ccc2ccccc2c1)Cc1cccc2ccccc12 |  | 5.01 | 0.631 | 7.94 |
| NCCCCCC(=O)N(Cc1ccc2ccccc2c1)Cc1cccc2ccccc12 | 3.98 | 2 | 1.58 | 31.6 |
| NCCCNC(=O)[C@H](CNCc1c[nH]c2ccccc12)NCc1ccc2ccccc2c1 | 39.8 | 25.1 | 0.631 | 50.1 |

Reference: ChEMBL document CHEMBL1145800, “QSAR and proteo-chemometric analysis of the interaction of a series of organic compounds with melanocortin receptor subtypes” (J Med Chem, 2003)
